The source of these data is ChEMBL document CHEMBL3603759, “Ribosome-targeting antibiotics as inhibitors of oncogenic microRNAs biogenesis: Old scaffolds for new perspectives in RNA targeting” (Bioorg Med Chem, 2015).

Test [1] in a line: Inhibition of pre-miR-372 (unknown origin) cleavage assessed as reduction of oncogenic microRNAs biogenesis at 200 uM by measuring fluorescence every minute for 5 hrs using 5'-FAM,3'-dabcyl-pre-miRNA beacons by FRET assay in presence of recombinant Dicer.
Test [2] can be described thus: Inhibition of pre-miR-373 (unknown origin) cleavage assessed as reduction of oncogenic microRNAs biogenesis at 200 uM by measuring fluorescence every minute for 5 hrs using 5'-FAM,3'-dabcyl-pre-miRNA beacons by FRET assay in presence of recombinant Dicer.
The nature of test [3]: Inhibition of pre-miR-17 (unknown origin) cleavage assessed as reduction of oncogenic microRNAs biogenesis at 200 uM by measuring fluorescence every minute for 5 hrs using 5'-FAM,3'-dabcyl-pre-miRNA beacons by FRET assay in presence of recombinant Dicer.
The nature of test [4]: Inhibition of pre-miR-21 (unknown origin) cleavage assessed as reduction of oncogenic microRNAs biogenesis at 200 uM by measuring fluorescence every minute for 5 hrs using 5'-FAM,3'-dabcyl-pre-miRNA beacons by FRET assay in presence of recombinant Dicer.
The nature of test [5]: Inhibition of pre-miR-372 (unknown origin) cleavage assessed as reduction of oncogenic microRNAs biogenesis by measuring fluorescence every minute for 5 hrs using 5'-FAM,3'-dabcyl-pre-miRNA beacons by FRET assay in presence of recombinant Dicer.
The nature of test [6]: Inhibition of pre-miR-17 (unknown origin) cleavage assessed as reduction of oncogenic microRNAs biogenesis by measuring fluorescence every minute for 5 hrs using 5'-FAM,3'-dabcyl-pre-miRNA beacons by FRET assay in presence of recombinant Dicer.
Test [7] in a line: Inhibition of pre-miR-373 (unknown origin) cleavage assessed as reduction of oncogenic microRNAs biogenesis by measuring fluorescence every minute for 5 hrs using 5'-FAM,3'-dabcyl-pre-miRNA beacons by FRET assay in presence of recombinant Dicer.
A short description of test [8]: Inhibition of pre-miR-21 (unknown origin) cleavage assessed as reduction of oncogenic microRNAs biogenesis by measuring fluorescence every minute for 5 hrs using 5'-FAM,3'-dabcyl-pre-miRNA beacons by FRET assay in presence of recombinant Dicer.
The nature of test [9]: Binding affinity to 5'-FAM-pre-miR-372 (unknown origin) after 4 hrs by fluorescence assay. The following applies: read-out: Kd.
The nature of test [10]: Binding affinity to 5'-FAM-pre-miR-17 (unknown origin) after 4 hrs by fluorescence assay. The conditions noted are these: read-out: Kd.
Test [11] is described as follows: Binding affinity to 5'-FAM-pre-miR-373 (unknown origin) after 4 hrs by fluorescence assay. The conditions noted are these: read-out: Kd.
Test [12] in a line: Binding affinity to 5'-FAM-pre-miR-372 (unknown origin) after 4 hrs by fluorescence assay in presence of 100-fold excess of Escherichia coli tRNA.
Test [13] in a line: Ratio of Kd for 5'-FAM-pre-miR-372 (unknown origin) in presence of 100-fold excess of Escherichia coli tRNA to Kd for 5'-FAM-pre-miR-372 (unknown origin).
Test [14] in a line: Binding affinity to 5'-FAM-pre-miR-372 (unknown origin) after 4 hrs by fluorescence assay in presence of 100-fold excess of 15-mer DNA.
Test [15] can be described thus: Ratio of Kd for 5'-FAM-pre-miR-372 (unknown origin) in presence of 100-fold excess of 15-mer DNA to Kd for 5'-FAM-pre-miR-372 (unknown origin).
The nature of test [16]: Inhibition of pre-miR-372 (unknown origin) cleavage at C27 at 10 to 100 uM after 15 mins by RNase footprinting assay in presence of RNase-V1.
Test [17] is described as follows: Inhibition of pre-miR-372 (unknown origin) cleavage at U15-G16-G17-A18 at 10 to 100 uM after 15 mins by RNase footprinting assay in presence of RNase-V1.
Test [18] can be described thus: Inhibition of pre-miR-372 (unknown origin) cleavage at A10-A11 at 10 to 100 uM after 15 mins by RNase footprinting assay in presence of RNase-V1.
Test [19] can be described thus: Inhibition of pre-miR-372 (unknown origin) cleavage at 10 to 100 uM after 15 mins by RNase footprinting assay in presence of RNase-S1.
Test [20] is described as follows: Inhibition of pre-miR-372 (unknown origin) cleavage at A24 at 1 to 100 uM after 2 hrs by denaturing gel electrophoresis in presence of recombinant Dicer.
Test [21] in a line: Inhibition of pre-miR-372 (unknown origin) cleavage at A42 at 1 to 100 uM after 2 hrs by denaturing gel electrophoresis in presence of recombinant Dicer.
A short description of test [22]: Inhibition of pre-miR-372 (unknown origin) cleavage at U28 at 1 to 100 uM after 2 hrs by denaturing gel electrophoresis in presence of recombinant Dicer.
The nature of test [23]: Binding affinity to 5'-FAM-pre-miR-372 (unknown origin) assessed as change in total free energy by thermodynamic assay.
The nature of test [24]: Inhibition of pre-miR-372 (unknown origin) cleavage at 1 to 100 uM after 15 mins by RNase footprinting assay in presence of RNase-V1.
Test [25] can be described thus: Inhibition of pre-miR-372 (unknown origin) cleavage at U31, G32 and U33 at 1 to 100 uM after 15 mins by RNase footprinting assay in presence of RNase-S1.

Active and inactive are the calls of the source. The calls are words filed in the database; no cut-off is given here.

Usually inhibition stands for the percentage by which the read-out fell short of the control. In general, IC50 refers to the concentration at which inhibition is half-maximal. The Kd is the equilibrium constant for the complex coming apart. In the case of `NC[C@@H]1O[C@H](O[C@H]2[C@@H](O)[C@H](O[C@@H]3[C@@H](O)[C@H](N)C[C@H](N)[C@H]3O[C@H]3O[C@H](CN)[C@@H](O)[C@H](O)[C@H]3N)O[C@@H]2CO)[C@H](N)[C@@H](O)[C@@H]1O` [FRAMYCETIN], the inhibition in test [1], in test [2], in test [3] and in test [4] was 60% each time. Moreover, the IC50 was found to be 88.2 µM in test [5], 93.7 µM in [6], 143 µM in test [7] and 76.7 µM in test [8]. Further, the Kd in [9] was 11.6 µM; in [10], 1.88 µM; in [11], 15.2 µM; in [12], 11.7 µM; in test [14], 11.3 µM. The Ratio in test [13] and in test [15] was 1 in each case. The inhibition result in test [16], in test [17], in test [18], in [20], in test [21] and in [22] was “Active” in each case. For the same compound, the inhibition result in test [19] was “inactive”. Further, the Activity in [23] was 70%.

For the compound `CN(C)c1ccc(O)c2c1C[C@H]1C[C@H]3[C@H](N(C)C)C(O)=C(C(N)=O)C(=O)[C@@]3(O)C(O)=C1C2=O` [MINOCYCLINE], the inhibition in [1], in [2], in test [3] and in [4] was 30% each time. Also, the half-inhibitory concentration (IC50) in test [5] was 397 µM; in test [6], 129 µM; in [7], 327 µM; in test [8] it was 369 µM. For the same compound, the Kd in [9] turned out to be 0.612 µM; in test [10], 0.651 µM; in [11], 0.597 µM; in test [12] it was 1.98 µM; in test [14], 1.45 µM. Besides, the Ratio in test [13] stood at 3.2; in test [15], 2.4. Also, the inhibition result in [24], in test [20], in test [21] and in [22] was “inactive” each time. Also, the inhibition entry in test [25] was “Active”. In addition, the Activity in test [23] was found to be 91%.

As to `CN(C)[C@@H]1C(O)=C(C(N)=O)C(=O)[C@@]2(O)C(O)=C3C(=O)c4c(O)cccc4[C@@](C)(O)[C@H]3[C@H](O)[C@@H]12` [OXYTETRACYCLINE], the inhibition in [1], in [2], in test [3] and in test [4] was 10% throughout. Besides, the concentration for half-maximal inhibition (IC50) turned out to be 657 µM in test [5], 392 µM in [6], 491 µM in [7] and 613 µM in test [8]. Further, the equilibrium dissociation constant (Kd) was 6.15 µM in test [9]; 6.22 µM in test [10]; 5.2 µM in [11]; 8.01 µM in [12]; 10.2 µM in [14]. Further, the Ratio in test [13] is 1.3; in test [15], 1.6. The Activity in test [23] was 90%.
